Measured values taken from patent US9951065B2 (Gilead Sciences, Inc., priority 2015, dated 2018).
pEC50: −log10 of the molar value.

Target: T1, IDO1 (Homo sapiens, UniProt P14902)
T1 construct: HeLa cells were treated with a test compound in the presence of IFNγ, which induces IDO1 expression; host or cells: H1-HeLa cells, IDO1 induced with IFNγ
Experiment: Cell-based (HeLa) assay for measurement of IDO1 inhibition (kynurenine levels in supernatant after IFNγ induction)
Settings: HeLa cells, IFNγ-induced IDO1, kynurenine in supernatant after 48 hour incubation; geometric mean of a minimum of four determinations
Protocol: Example 509. Cell-Based (HeLa) Assay for Measurement of IDOL Inhibition
To measure IDO1 inhibition in tissue culture, HeLa cells were treated with a test compound in the presence of IFNγ, which induces IDO1 expression. Following incubation, cell supernatants were assayed for kynurenine levels, an indicator of IDO1 activity.
H1-HeLa cells (ATCC #CRL-1958) were seeded in 384-well plates (Greiner #82051-282) at a volume of 50 μL/well in DMEM (Corning #15-018-CM) supplemented with 10% FBS (Corning #35-011-CV) and 1% P/S/G (Corning #30-009-CL) at a density of 1,250 cells/well and incubated overnight at 37° C., 5% CO2/100% humidity. The following day, the test compounds were added in DMSO (0.5% final) at various concentrations, and IDO1 was inducibly expressed by the addition of 50 uL/well of […] of INFγ (Peprotech #300-02) in cell plating media. As a […] control, 50 uL of the cell plating media without IFNγ was added to several wells. Following a 48 hour incubation, the plates were spun down at 1,200 RPM for 5 min at 10° C. 65 μL/well of the supernatant was then transferred to new 384-well plates (Thermo #262160) that contained 10 uL/well of 30% TCA (Sigma #TO699), and the plates were sealed and incubated at 60° C. for 30 min. The plates were then centrifuged for 15 min at 2,000 RPM at 10° C. 40 μL/well of the supernatant was transferred to new 384-well plates (Thermo #262160) and was reacted with 40 μL/well of 2% (w/v) p-dimethlyaminobenzaldehyde (Sigma #156417) in glacial acetic acid (Sigma #A6283). The reaction was incubated at room temperature for 10 min and absorbance at 480 nm was read using a PerkinElmer Envision plate reader.
Data in Table 1 were normalized based on positive (−IFNγ) and negative (+IFNγ) controls and EC50 values were calculated from the fit of the dose response curves to a four-parameter equation. All EC50 values represent geometric mean values of a minimum of four determinations. These assays generally produced results within 2-fold of the reported mean.

T1 sequence (P14902 whole entry): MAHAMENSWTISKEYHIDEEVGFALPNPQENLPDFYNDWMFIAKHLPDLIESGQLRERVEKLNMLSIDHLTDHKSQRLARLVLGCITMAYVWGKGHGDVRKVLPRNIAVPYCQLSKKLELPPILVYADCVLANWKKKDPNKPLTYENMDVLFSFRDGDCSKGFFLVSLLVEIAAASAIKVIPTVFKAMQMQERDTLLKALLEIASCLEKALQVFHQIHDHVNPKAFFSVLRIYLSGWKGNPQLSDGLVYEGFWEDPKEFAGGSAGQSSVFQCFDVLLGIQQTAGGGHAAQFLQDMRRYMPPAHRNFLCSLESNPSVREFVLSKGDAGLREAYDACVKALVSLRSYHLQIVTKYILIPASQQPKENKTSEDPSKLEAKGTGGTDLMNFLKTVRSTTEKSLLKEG

| pEC50 | SMILES |
| --- | --- |
| 5.29 | O/N=C(\Nc1ccc(F)c(Cl)c1)c1ccnc2nc(CNCC(F)F)[nH]c12 [Example 142, N-(3-Chloro-4-fluorophenyl)-2-(((2,2-difluoroethyl)amino)methyl)-N′-hydroxy-1H-imidazo[4,5-b]pyridine-7-carboximidamide] |
| 6.23 | O/N=C(\Nc1cccc2occc12)c1ccnc2nc[nH]c12 [Example 67, N-(Benzofuran-4-yl)-N′-hydroxy-1H-imidazo[4,5-b]pyridine-7-carboximidamide] |
| 5.12 | NCc1nc2nccc(/C(=N/O)Nc3ccc(F)c(Cl)c3)c2[nH]1 [Example 179, 2-(Aminomethyl)-N-(3-chloro-4-fluorophenyl)-N′-hydroxy-1H-imidazo[4,5-b]pyridine-7-carboximidamide] |
| 6.62 | O/N=C(\Nc1ccc(F)c(Cl)c1)c1ccnc2nc(CCN3CCCCC3)[nH]c12 [Example 192, N-(3-Chloro-4-fluorophenyl)-N′-hydroxy-2-(2-(piperidin-1-yl)ethyl)-1H-imidazo[4,5-b]pyridine-7-carboximidamide] |
| 5.40 | O/N=C(\Nc1ccc(F)c(Cl)c1)c1ccnc2nc(CNCc3cnccn3)[nH]c12 [Example 134, N-(3-Chloro-4-fluorophenyl)-N′-hydroxy-2-(((pyrazin-2-ylmethyl)amino)methyl)-1H-imidazo[4,5-b]pyridine-7-carboximidamide] |
| 6.09 | O/N=C(\Nc1ccc(F)c(Cl)c1F)c1ccnc2nc[nH]c12 [Example 64, N-(3-Chloro-2,4-difluorophenyl)-N′-hydroxy-1H-imidazo[4,5-b]pyridine-7-carboximidamide] |
| 6.46 | O/N=C(\Nc1ccc(F)c(Cl)c1)c1cc(F)c(F)c2nc(NCCN3CCOCC3)[nH]c12 [Example 23, N-(3-Chloro-4-fluorophenyl)-4,5-difluoro-N′-hydroxy-2-((2-morpholinoethyl)amino)-1H-benzo[d]imidazole-7-carboximidamide] |
| 6.15 | CC(C)Nc1nc2nccc(/C(=N/O)Nc3ccc(F)c(Cl)c3)c2[nH]1 [Example 165, N-(3-Chloro-4-fluorophenyl)-N′-hydroxy-2-(isopropylamino)-1H-imidazo[4,5-b]pyridine-7-carboximidamide] |
| 6.22 | O/N=C(\Nc1cccc(OC(F)(F)F)c1)c1ccnc2nc[nH]c12 [Example 99, N′-Hydroxy-N-(3-(trifluoromethoxy)phenyl)-1H-imidazo[4,5-b]pyridine-7-carboximidamide] |
| 5.85 | O/N=C(\Nc1ccc(F)c(Cl)c1)c1ccnc2nc(CN3CCCC3)[nH]c12 [Example 139, N-(3-Chloro-4-fluorophenyl)-N′-hydroxy-2-(pyrrolidin-1-ylmethyl)-1H-imidazo[4,5-b]pyridine-7-carboximidamide] |
| 6.03 | CCNCc1nc2nccc(/C(=N/O)Nc3ccc(F)c(Cl)c3)c2[nH]1 [Example 114, N-(3-Chloro-4-fluorophenyl)-2-((ethylamino)methyl)-N′-hydroxy-1H-imidazo[4,5-b]pyridine-7-carboximidamide] |
| 5.74 | CN(C)Cc1nc2c(F)ccc(/C(=N/O)Nc3ccc(F)c(Cl)c3)c2[nH]1 [Example 288, N-(3-chloro-4-fluorophenyl)-2-((dimethylamino)methyl)-4-fluoro-N′-hydroxy-1H-benzo[d]imidazole-7-carboximidamide] |
| 5.29 | CC(C)c1cc(N/C(=N\O)c2ccnc3nc[nH]c23)ccc1F [Example 93, N-(4-Fluoro-3-isopropylphenyl)-N′-hydroxy-1H-imidazo[4,5-b]pyridine-7-carboximidamide] |
| 6.18 | O/N=C(\Nc1ccc(F)c(Cl)c1)c1ccnc2nc(NCC3CC3)[nH]c12 [Example 161, N-(3-Chloro-4-fluorophenyl)-2-((cyclopropylmethyl)amino)-N′-hydroxy-1H-imidazo[4,5-b]pyridine-7-carboximidamide] |
| 6.42 | CNc1nc2nccc(/C(=N/O)Nc3cccc(Cl)c3)c2[nH]1 [Example 166, N-(3-Chlorophenyl)-N′-hydroxy-2-(methylamino)-1H-imidazo[4,5-b]pyridine-7-carboximidamide] |
| 6.85 | O/N=C(\Nc1ccc(F)c(Br)c1)c1ccnc2nc[nH]c12 [Example 81, N-(3-Bromo-4-fluorophenyl)-N′-hydroxy-1H-imidazo[4,5-b]pyridine-7-carboximidamide] |
| 5.75 | NCCc1nc2nccc(/C(=N/O)Nc3ccc(F)c(Cl)c3)c2[nH]1 [Example 189, 2-(2-Aminoethyl)-N-(3-chloro-4-fluorophenyl)-N′-hydroxy-1H-imidazo[4,5-b]pyridine-7-carboximidamide] |

Same assay, conditions: HeLa cells, IFNγ-induced IDO1, kynurenine in supernatant, 48 hour incubation; geometric mean of a minimum of four determinations

| pEC50 | SMILES |
| --- | --- |
| < 5.00 | O/N=C(\Nc1ccc(F)c(Cl)c1)c1ccnc2nc(CC3CCCCN3)[nH]c12 (centres unmarked) [Example 325, N-(3-chloro-4-fluorophenyl)-N′-hydroxy-2-(piperidin-2-ylmethyl)-1H-imidazo[4,5-b]pyridine-7-carboximidamide] |
| 5.97 | CO[C@@H]1CN(C)C[C@H]1Nc1nc2nccc(/C(=N/O)Nc3ccc(F)c(Cl)c3)c2[nH]1 [Example 479, N-(3-chloro-4-fluorophenyl)-N′-hydroxy-2-(((3R,4R)-4-methoxy-1-methylpyrrolidin-3-yl)amino)-1H-imidazo[4,5-b]pyridine-7-carboximidamide] |
| 5.87 | CN(C)CCSc1nc2nccc(/C(=N/O)Nc3ccc(F)c(Cl)c3)c2[nH]1 [Example 487, N-(3-chloro-4-fluorophenyl)-2-((2-(dimethylamino)ethyl)thio)-N′-hydroxy-1H-imidazo[4,5-b]pyridine-7-carboximidamide] |
| 5.83 | CN(CCc1nc2nccc(/C(=N/O)Nc3ccc(F)c(Cl)c3)c2[nH]1)CC1CCCCC1 [Example 391, N-(3-chloro-4-fluorophenyl)-2-(2-((cyclohexylmethyl)(methyl)amino)ethyl)-N′-hydroxy-1H-imidazo[4,5-b]pyridine-7-carboximidamide] |
| 5.52 | CN(C)CCSc1nc2c(F)c(F)cc(/C(=N/O)Nc3ccc(F)c(Cl)c3)c2[nH]1 [Example 488, N-(3-chloro-4-fluorophenyl)-2-((2-(dimethylamino)ethyl)thio)-4,5-difluoro-N′-hydroxy-1H-benzo[d]imidazole-7-carboximidamide] |
| < 5.00 | O/N=C(\Nc1ccc(F)c(Cl)c1)c1cc(F)c(F)c2nc(NCC3CCCNC3)[nH]c12 (centres unmarked) [Example 304, N-(3-chloro-4-fluorophenyl)-4,5-difluoro-N′-hydroxy-2-((piperidin-3-ylmethyl)amino)-1H-benzo[d]imidazole-7-carboximidamide] |
| < 5.00 | O/N=C(\Nc1ccc(F)c(Cl)c1)c1ccnc2nc(NCc3ncccn3)[nH]c12 [Example 494, N-(3-chloro-4-fluorophenyl)-N′-hydroxy-2-((pyrimidin-2-ylmethyl)amino)-1H-imidazo[4,5-b]pyridine-7-carboximidamide] |
| 5.94 | CN(C)CCCNc1nc2cc(F)cc(/C(=N/O)Nc3ccc(F)c(Cl)c3)c2[nH]1 [Example 389, N-(3-chloro-4-fluorophenyl)-2-((3-(dimethylamino)propyl)amino)-5-fluoro-N′-hydroxy-1H-benzo[d]imidazole-7-carboximidamide] |
| 5.82 | O/N=C(\Nc1ccc(F)c(Cl)c1)c1cc(F)c(F)c2nc(NC3CNCCOC3)[nH]c12 (centres unmarked) [Example 477, 2-((1,4-oxazepan-6-yl)amino)-N-(3-chloro-4-fluorophenyl)-4,5-difluoro-N′-hydroxy-1H-benzo[d]imidazole-7-carboximidamide] |
